Drawing on patent US20140163023A1, “DIHYDROPYRROLO PYRIMIDINE DERIVATIVES AS MTOR INHIBITORS” (Cellzome Limited, priority 2011, published 2014), this text covers IC50 for eleven compounds.

A value given as a limit tells only on which side of the number the result lay.

One experiment concerns the target T1, PI3Kα (Homo sapiens, UniProt P42336).
T1 construct: endogenous in cells; host or cells: Jurkat (ATCC TIB-152, clone E6-1) and Ramos (ATCC CRL-1596), 1:1 lysate mix
Put plainly: kinobeads assay, PI3Kα. It counts as binding. Particulars: 1:1 mix of Jurkat and Ramos cell lysates, read-out: Inhibition values (IC50 in μM) as determined in the kinobeads assay, PI3Kα. As to the method: (§1) The compounds of the present invention as described were tested in the mTOR kinobeads assay as described below. Briefly, test compounds (at various concentrations) and the affinity matrix (1:1 mixture of beads with immobilized phenylthiazole ligand 1 and beads with immobilized phenylmorpholin-chromen ligand; WO 2009/098021) were added to cell lysate aliquots and allowed to bind to the proteins in the lysate sample. After the incubation time the beads with captured proteins were separated from the lysate. Bound proteins were then eluted and the presence of mTOR, PI3Kα, PI3Kβ, PI3Kγ, PI3Kδ and DNA-dependent protein kinase (DNA-PK) was detected and quantified using a specific antibody in a dot blot procedure and the Odyssey infrared detection system. Dose response curves for individual kinases were generated and IC50 values calculated. Kinobeads assays for PI3 kinases (WO-A 2008/015013) and for kinase selectivity profiling (WO 2009/098021) have been previously described.
(§2) Washing of Affinity Matrix
(§3) The affinity matrix was washed two times with 15 ml of 1×DP buffer containing 0.2% NP40 (IGEPAL® CA-630, Sigma, #13021) and then resupended in 5.5 ml of 1×DP buffer containing 0.2% NP40 (10% beads slurry).
(§4) 5×DP buffer: 250 mM Tris-HCl pH 7.4, 25% Glycerol, 7.5 mM MgCl2, 750 mM NaCl, 5 mM Na3VO4, filter the 5×-lysis buffer through 0.22 μm filter and store in aliquots at −80° C. The 5×DP buffer is diluted to 1×DP buffer containing 1 mM DTT and 25 mM NaF.
(§5) Preparation of Test Compounds
(§6) Stock solutions of test compounds were prepared in DMSO. In a 96 well plate 30 μl solution of diluted test compounds at 5 mM in DMSO were prepared. Starting with this solution a 1:3 dilution series (9 steps) was prepared. For control experiments (no test compound) a buffer containing 2% DMSO was used. Compound Pi-103 (Calbiochem catalogue number 528100) served as a positive control.
(§7) Cell Culture and Preparation of Cell Lysates
(§8) Jurkat cells (ATCC catalogue number TIB-152 Jurkat, clone E6-1) and Ramos cells (ATCC number CRL-1596) were grown in 1 litre Spinner flasks (Integra Biosciences, #182101) in suspension in RPMI 1640 medium (Invitrogen, #21875-034) supplemented with 10% Fetal Bovine Serum (Invitrogen) at a density between 0.15×10^6 and 1.2×10^6 cells/ml. Cells were harvested by centrifugation, washed once with 1×PBS buffer (Invitrogen, #14190-094) and cell pellets were frozen in liquid nitrogen and subsequently stored at −80° C.
(§9) Cells were homogenized in a Potter S homogenizer in lysis buffer: 50 mM Tris-HCl, 0.8% NP40, 5% glycerol, 150 mM NaCl, 1.5 mM MgCl2, 25 mM NaF, 1 mM sodium vanadate, 1 mM DTT, pH 7.5. One complete EDTA-free tablet (protease inhibitor cocktail, Roche Diagnostics, 1873580) per 25 ml buffer was added. The material was dounced 10 times using a mechanized POTTER S, transferred to 50 ml falcon tubes, incubated for 30 minutes on ice and spun down for 10 min at 20,000 g at 4° C. (10,000 rpm in Sorvall SLA600, precooled). The supernatant was transferred to an ultracentrifuge (UZ)-polycarbonate tube (Beckmann, 355654) and spun for 1 hour at 100.000 g at 4° C. (33.500 rpm in Ti50.2, precooled). The supernatant was transferred again to a fresh 50 ml falcon tube, the protein concentration was determined by a Bradford assay (BioRad) and samples containing 50 mg of protein per aliquot were prepared. The samples were immediately used for experiments or frozen in liquid nitrogen and stored frozen at −80° C.
(§10) Cell lysate (approximately 50 mg protein per plate) was thawed in a water bath at room temperature and then kept on ice. To the thawed cell lysate 1×DP 0.8% NP40 buffer containing protease inhibitors (1 tablet for 25 ml buffer; EDTA-free protease inhibitor cocktail; Roche Diagnostics 1873580) was added in order to reach a final protein concentration of 5 mg/ml total protein. For the kinobeads experiment a 1:1 mix of Jurkat and Ramos cell lysates was used. The diluted cell lysate was stored on ice. […]

The target in experiment [1] is T2, DNA-dependent protein kinase (DNA-PK) (Homo sapiens, UniProt P78527).
T2 construct: endogenous in cells; host or cells: Jurkat (ATCC TIB-152, clone E6-1) and Ramos (ATCC CRL-1596), 1:1 lysate mix
Put plainly: kinobeads assay, DNA-PK. It counts as binding. The conditions noted are these: 1:1 mix of Jurkat and Ramos cell lysates, read-out: Inhibition values (IC50 in μM) as determined in the kinobeads assay, DNA-PK. On the procedure:
as §1, §2, §3, §4, §5, §6, §7, §8, §9, §10

Another experiment concerns the target T3, PI3Kβ (Homo sapiens, UniProt P42338).
T3 construct: endogenous in cells; host or cells: Jurkat (ATCC TIB-152, clone E6-1) and Ramos (ATCC CRL-1596), 1:1 lysate mix
Nature of the experiment: kinobeads assay, PI3Kβ. It counts as binding. The conditions noted are these: 1:1 mix of Jurkat and Ramos cell lysates, read-out: Inhibition values (IC50 in μM) as determined in the kinobeads assay, PI3Kβ. On the procedure:
as §1, §2, §3, §4, §5, §6, §7, §8, §9, §10

Another experiment concerns the target T4, PI3Kγ (Homo sapiens, UniProt P48736).
T4 construct: endogenous in cells; host or cells: Jurkat (ATCC TIB-152, clone E6-1) and Ramos (ATCC CRL-1596), 1:1 lysate mix
Put plainly: kinobeads assay, PI3Kγ. It counts as binding. Particulars: 1:1 mix of Jurkat and Ramos cell lysates, read-out: Inhibition values (IC50 in μM) as determined in the kinobeads assay, PI3Kγ. As to the method:
as §1, §2, §3, §4, §5, §6, §7, §8, §9, §10

The target in another experiment is T5, PI3Kδ (Homo sapiens, UniProt O00329).
T5 construct: endogenous in cells; host or cells: Jurkat (ATCC TIB-152, clone E6-1) and Ramos (ATCC CRL-1596), 1:1 lysate mix
Put plainly: kinobeads assay, PI3Kδ. It counts as binding. The conditions noted are these: 1:1 mix of Jurkat and Ramos cell lysates, read-out: Inhibition values (IC50 in μM) as determined in the kinobeads assay, PI3Kδ. On the procedure:
as §1, §2, §3, §4, §5, §6, §7, §8, §9, §10

The target in another experiment is T6, mTOR (Homo sapiens, UniProt P42345).
T6 construct: endogenous in cells; host or cells: Jurkat (ATCC TIB-152, clone E6-1) and Ramos (ATCC CRL-1596), 1:1 lysate mix
Put plainly: mTOR kinobeads assay (competition binding in cell lysate, dot blot detection). The conditions noted are these: 1:1 mix of Jurkat and Ramos cell lysates, read-out: Inhibition values (IC50 in μM) as determined in the kinobeads assay, mTor. On the procedure:
Determination of the Effect of the Compounds According to the Invention on mTOR
as §1, §2, §3, §4, §5, §6, §7, §8, §9
Cell lysate (approximately 50 mg protein per plate) was thawed in a water bath at room temperature and then kept on ice. To the thawed cell lysate 1×DP 0.8% NP40 buffer containing protease inhibitors (1 tablet for 25 ml buffer; EDTA-free protease inhibitor cocktail; Roche Diagnostics 1873580) was added in order to reach a final protein concentration of 5 mg/ml total protein. For the kinobeads experiment a 1:1 mix of Jurkat and Ramos cell lysates was used. […]

T3 sequence (P42338 whole entry): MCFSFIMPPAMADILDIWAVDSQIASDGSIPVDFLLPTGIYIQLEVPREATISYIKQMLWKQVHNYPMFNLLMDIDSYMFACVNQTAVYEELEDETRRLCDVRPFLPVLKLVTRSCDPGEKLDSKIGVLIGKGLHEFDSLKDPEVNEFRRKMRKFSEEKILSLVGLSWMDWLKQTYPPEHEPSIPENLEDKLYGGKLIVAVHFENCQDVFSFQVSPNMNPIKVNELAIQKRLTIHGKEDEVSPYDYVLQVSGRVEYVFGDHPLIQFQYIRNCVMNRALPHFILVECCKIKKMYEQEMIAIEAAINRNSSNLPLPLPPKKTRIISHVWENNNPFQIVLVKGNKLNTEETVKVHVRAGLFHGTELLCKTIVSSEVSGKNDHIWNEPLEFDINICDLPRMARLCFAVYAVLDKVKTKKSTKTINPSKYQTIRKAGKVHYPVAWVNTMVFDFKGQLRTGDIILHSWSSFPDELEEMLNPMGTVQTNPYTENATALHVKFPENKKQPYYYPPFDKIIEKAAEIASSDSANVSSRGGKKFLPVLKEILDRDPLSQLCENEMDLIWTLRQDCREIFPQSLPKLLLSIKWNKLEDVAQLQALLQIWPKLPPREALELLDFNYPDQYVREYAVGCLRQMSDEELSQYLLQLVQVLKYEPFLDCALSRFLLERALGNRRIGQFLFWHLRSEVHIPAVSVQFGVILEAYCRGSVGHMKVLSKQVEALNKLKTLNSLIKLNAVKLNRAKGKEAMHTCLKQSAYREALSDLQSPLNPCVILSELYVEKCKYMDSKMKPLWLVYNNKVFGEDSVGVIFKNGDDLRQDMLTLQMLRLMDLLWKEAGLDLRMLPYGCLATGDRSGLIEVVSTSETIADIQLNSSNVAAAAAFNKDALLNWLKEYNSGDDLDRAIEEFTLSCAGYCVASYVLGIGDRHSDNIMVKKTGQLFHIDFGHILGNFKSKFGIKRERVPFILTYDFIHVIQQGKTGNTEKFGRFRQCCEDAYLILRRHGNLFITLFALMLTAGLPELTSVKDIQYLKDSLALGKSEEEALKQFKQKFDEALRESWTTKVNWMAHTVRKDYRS
T3 sequence (P27986 whole entry partner): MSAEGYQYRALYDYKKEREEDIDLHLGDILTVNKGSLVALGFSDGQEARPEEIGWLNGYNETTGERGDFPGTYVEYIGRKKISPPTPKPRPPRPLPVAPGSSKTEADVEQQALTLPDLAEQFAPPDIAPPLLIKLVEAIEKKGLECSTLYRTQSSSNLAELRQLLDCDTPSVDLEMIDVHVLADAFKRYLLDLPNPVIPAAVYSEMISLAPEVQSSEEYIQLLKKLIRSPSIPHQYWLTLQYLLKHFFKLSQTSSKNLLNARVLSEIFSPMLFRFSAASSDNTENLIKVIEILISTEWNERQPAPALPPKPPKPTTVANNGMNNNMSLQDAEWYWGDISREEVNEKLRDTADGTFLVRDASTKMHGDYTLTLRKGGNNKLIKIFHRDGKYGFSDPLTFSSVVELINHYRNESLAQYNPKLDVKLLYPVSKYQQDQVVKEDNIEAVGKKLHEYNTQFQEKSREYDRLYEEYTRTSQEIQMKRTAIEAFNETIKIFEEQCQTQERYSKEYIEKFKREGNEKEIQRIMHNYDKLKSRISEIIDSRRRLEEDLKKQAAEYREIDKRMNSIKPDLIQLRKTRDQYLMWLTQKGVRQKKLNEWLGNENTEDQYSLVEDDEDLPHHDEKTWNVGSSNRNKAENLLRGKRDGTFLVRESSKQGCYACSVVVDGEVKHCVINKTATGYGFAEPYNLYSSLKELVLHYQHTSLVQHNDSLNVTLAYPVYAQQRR
T1 sequence (P42336 whole entry): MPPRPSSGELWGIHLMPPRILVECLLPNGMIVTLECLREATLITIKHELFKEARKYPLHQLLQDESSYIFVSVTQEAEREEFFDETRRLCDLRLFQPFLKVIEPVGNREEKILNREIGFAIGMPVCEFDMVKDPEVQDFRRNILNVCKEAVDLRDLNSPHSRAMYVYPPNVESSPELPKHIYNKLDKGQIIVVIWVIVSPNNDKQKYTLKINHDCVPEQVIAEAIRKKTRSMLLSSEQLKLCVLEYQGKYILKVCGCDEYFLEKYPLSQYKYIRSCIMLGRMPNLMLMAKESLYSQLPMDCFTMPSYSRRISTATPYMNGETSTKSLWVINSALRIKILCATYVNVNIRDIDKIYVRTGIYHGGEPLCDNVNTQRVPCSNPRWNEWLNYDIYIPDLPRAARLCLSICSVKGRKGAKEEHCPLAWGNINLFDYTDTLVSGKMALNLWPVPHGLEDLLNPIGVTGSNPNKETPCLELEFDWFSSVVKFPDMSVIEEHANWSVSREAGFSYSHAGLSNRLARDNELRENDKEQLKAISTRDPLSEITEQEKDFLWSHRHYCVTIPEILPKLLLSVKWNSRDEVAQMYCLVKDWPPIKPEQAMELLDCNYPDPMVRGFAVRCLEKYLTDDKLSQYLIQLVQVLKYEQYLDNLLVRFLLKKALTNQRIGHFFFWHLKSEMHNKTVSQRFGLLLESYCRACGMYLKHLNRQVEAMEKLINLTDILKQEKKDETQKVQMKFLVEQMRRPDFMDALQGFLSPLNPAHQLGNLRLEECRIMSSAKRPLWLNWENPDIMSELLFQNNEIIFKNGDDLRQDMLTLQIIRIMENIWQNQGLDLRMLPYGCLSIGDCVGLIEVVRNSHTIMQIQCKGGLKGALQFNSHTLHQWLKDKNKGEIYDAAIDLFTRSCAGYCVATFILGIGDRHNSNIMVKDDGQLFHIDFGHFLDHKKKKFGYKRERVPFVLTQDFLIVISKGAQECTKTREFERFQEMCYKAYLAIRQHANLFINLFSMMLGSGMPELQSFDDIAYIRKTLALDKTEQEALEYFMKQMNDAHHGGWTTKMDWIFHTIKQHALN
T1 sequence (P27986 whole entry partner): as the sequence (P27986 whole entry partner) above
T5 sequence (O00329 whole entry): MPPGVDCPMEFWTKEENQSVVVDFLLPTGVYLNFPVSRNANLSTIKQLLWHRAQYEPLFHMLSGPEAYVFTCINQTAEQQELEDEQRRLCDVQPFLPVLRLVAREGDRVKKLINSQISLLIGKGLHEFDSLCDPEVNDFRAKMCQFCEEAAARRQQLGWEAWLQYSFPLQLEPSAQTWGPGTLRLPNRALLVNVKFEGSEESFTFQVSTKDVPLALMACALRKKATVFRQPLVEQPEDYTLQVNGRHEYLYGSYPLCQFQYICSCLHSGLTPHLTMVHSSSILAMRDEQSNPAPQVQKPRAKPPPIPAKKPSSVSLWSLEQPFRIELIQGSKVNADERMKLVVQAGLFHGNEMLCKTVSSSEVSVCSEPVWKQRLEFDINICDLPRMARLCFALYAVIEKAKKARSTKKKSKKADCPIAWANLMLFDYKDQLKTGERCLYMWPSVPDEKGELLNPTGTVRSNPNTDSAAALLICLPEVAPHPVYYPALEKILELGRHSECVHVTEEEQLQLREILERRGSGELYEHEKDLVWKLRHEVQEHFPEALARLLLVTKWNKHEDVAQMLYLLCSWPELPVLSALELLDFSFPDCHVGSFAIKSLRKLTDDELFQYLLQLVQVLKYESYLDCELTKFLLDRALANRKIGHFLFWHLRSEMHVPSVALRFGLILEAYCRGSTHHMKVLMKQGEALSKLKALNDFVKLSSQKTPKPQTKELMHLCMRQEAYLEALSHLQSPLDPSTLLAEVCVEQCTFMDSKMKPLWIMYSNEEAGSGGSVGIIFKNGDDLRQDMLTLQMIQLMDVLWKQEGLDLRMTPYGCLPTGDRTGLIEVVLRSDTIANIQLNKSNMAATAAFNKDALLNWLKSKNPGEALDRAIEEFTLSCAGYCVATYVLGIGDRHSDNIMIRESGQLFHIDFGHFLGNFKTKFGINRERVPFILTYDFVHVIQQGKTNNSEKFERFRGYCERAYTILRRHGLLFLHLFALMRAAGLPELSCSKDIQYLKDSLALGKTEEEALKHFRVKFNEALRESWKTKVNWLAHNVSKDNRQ
T5 sequence (P27986 whole entry partner): as the sequence (P27986 whole entry partner) above
T4 sequence (P48736 whole entry): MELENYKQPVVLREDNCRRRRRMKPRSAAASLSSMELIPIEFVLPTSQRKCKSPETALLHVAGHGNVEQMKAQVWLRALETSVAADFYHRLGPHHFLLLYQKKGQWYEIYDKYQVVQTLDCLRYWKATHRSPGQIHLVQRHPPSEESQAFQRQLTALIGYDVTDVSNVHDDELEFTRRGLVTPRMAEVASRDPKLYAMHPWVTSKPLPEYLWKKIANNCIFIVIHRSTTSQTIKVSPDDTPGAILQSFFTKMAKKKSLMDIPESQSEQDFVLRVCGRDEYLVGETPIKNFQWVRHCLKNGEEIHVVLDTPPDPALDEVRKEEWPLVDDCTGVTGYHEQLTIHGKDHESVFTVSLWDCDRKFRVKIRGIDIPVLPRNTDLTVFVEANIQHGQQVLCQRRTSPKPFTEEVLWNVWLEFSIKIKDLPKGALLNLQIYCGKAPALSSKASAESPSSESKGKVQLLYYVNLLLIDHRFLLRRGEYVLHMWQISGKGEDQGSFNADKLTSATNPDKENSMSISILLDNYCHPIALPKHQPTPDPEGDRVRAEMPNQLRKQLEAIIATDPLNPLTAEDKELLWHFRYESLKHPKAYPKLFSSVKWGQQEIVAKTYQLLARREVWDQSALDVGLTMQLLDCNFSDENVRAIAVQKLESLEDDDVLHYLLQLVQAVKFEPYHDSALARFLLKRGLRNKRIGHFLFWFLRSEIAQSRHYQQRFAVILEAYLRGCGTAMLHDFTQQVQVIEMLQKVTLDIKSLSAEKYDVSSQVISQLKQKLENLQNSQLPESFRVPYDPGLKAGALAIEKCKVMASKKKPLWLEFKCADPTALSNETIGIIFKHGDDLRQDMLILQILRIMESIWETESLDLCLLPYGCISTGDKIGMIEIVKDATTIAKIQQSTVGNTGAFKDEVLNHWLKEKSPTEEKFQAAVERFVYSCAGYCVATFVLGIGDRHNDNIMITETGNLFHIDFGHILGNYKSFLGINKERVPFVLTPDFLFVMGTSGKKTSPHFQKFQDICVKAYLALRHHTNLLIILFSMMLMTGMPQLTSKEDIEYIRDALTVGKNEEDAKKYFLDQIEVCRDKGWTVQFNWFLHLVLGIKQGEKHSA

Turning to `CC(C)N1Cc2nc(N3CCOC[C@@H]3C)nc(-c3ccc(NC(=O)NC4CC4)cc3)c2C1` [Example 13, (S)-1-cyclopropyl-3-(4-(6-isopropyl-2-(3-methylmorpholino)-6,7-dihydro-5H-pyrrolo[3,4-d]pyrimidin-4-yl)phenyl)urea], the 50% inhibitory concentration (IC50) was > 100 µM on PI3Kα; > 100 µM in experiment [1]; > 100 µM on PI3Kβ; > 100 µM on PI3Kγ; > 100 µM at PI3Kδ; 0.1 to 1 µM at mTOR.

On to `C[C@H]1COCCN1c1nc2c(c(-c3ccc(NC(=O)NC4CC4)cc3)n1)CN(C1CC1)C2` [Example 14, (S)-1-cyclopropyl-3-(4-(6-cyclopropyl-2-(3-methylmorpholino)-6,7-dihydro-5H-pyrrolo[3,4-d]pyrimidin-4-yl)phenyl)urea], for which the IC50 at PI3Kα is > 100 µM; in experiment [1] it was > 100 µM; at PI3Kβ, > 100 µM; at PI3Kγ, > 100 µM; at PI3Kδ it was > 100 µM; on mTOR it was 1 to 10 µM.

With `C[C@H]1COCCN1c1nc2c(c(-c3ccc(NC(=O)NC4CC4)cc3)n1)CN(S(C)(=O)=O)C2` [Example 15, (S)-1-cyclopropyl-3-(4-(2-(3-methylmorpholino)-6-(methylsulfonyl)-6,7-dihydro-5H-pyrrolo[3,4-d]pyrimidin-4-yl)phenyl)urea], the IC50 on PI3Kα is > 100 µM; in experiment [1] it was > 100 µM; at PI3Kβ, > 100 µM; at PI3Kγ it was > 100 µM; on PI3Kδ it was > 100 µM; on mTOR, 0.1 to 1 µM.

Regarding `C[C@H]1COCCN1C(=O)Nc1ccc(-c2nc(N3CCOC[C@@H]3C)nc3c2CNC3)cc1` [Example 16, (S)-3-methyl-N-(4-(2-((S)-3-methylmorpholino)-6,7-dihydro-5H-pyrrolo[3,4-d]pyrimidin-4-yl)phenyl)morpholine-4-carboxamide], the IC50 on PI3Kα was > 100 µM; in experiment [1] it was > 100 µM; on PI3Kβ, > 100 µM; at PI3Kγ, > 100 µM; on PI3Kδ, > 100 µM; on mTOR, 1 to 10 µM.

Turning to `CCNC(=O)N1Cc2nc(N3CCOC[C@@H]3C)nc(-c3ccc(NC(=O)NC4CC4)cc3)c2C1` [Example 17, (S)-4-(4-(3-cyclopropylureido)phenyl)-N-ethyl-2-(3-methylmorpholino)-5H-pyrrolo[3,4-d]pyrimidine-6(7H)-carboxamide], the IC50 at PI3Kα is 10 to 100 µM; in experiment [1] it was > 100 µM; at PI3Kβ, > 100 µM; on PI3Kγ, > 100 µM; on PI3Kδ, > 100 µM; on mTOR it was 1 to 10 µM.

For the compound `O=C(Nc1ccc(-c2nc(N3CC4CCC(C3)O4)nc3c2CNC3)cc1)NC1CC1` [Example 18, 1-(4-(2-(8-oxa-3-azabicyclo[3.2.1]octan-3-yl)-6,7-dihydro-5H-pyrrolo[3,4-d]pyrimidin-4-yl)phenyl)-3-cyclopropylurea], the IC50 was > 100 µM at PI3Kα; 10 to 100 µM in experiment [1]; > 100 µM at PI3Kβ; > 100 µM on PI3Kγ; > 100 µM on PI3Kδ; 0.1 to 1 µM on mTOR.

Consider `C[C@H]1COCCN1c1nc2c(c(-c3ccc(NC(=O)NCCO)cc3)n1)CNC2` [Example 19, (S)-1-(2-hydroxyethyl)-3-(4-(2-(3-methylmorpholino)-6,7-dihydro-5H-pyrrolo[3,4-d]pyrimidin-4-yl)phenyl)urea], for which the IC50 at PI3Kα is 1 to 10 µM; in experiment [1], 10 to 100 µM; at PI3Kβ it was 10 to 100 µM; at PI3Kγ, 1 to 10 µM; at PI3Kδ, 10 to 100 µM; at mTOR, ≤ 0.1 µM.

For `C[C@H]1COCCN1c1nc2c(c(-c3ccc(NC(=O)NC4CC4)cc3)n1)CN(C(=O)CN(C)C)C2` [Example 20, (S)-1-cyclopropyl-3-(4-(6-(2-(dimethylamino)acetyl)-2-(3-methylmorpholino)-6,7-dihydro-5H-pyrrolo[3,4-d]pyrimidin-4-yl)phenyl)urea], the IC50 is > 100 µM at PI3Kα; > 100 µM in experiment [1]; 10 to 100 µM at PI3Kβ; > 100 µM on PI3Kγ; 10 to 100 µM at PI3Kδ; 1 to 10 µM on mTOR.

For `C[C@H]1COCCN1c1nc2c(c(-c3ccc(NC(=O)NC4CC4)cc3)n1)CN(C(=O)CCN(C)C)C2` [Example 21, (S)-1-cyclopropyl-3-(4-(6-(3-(dimethylamino)propanoyl)-2-(3-methylmorpholino)-6,7-dihydro-5H-pyrrolo[3,4-d]pyrimidin-4-yl)phenyl)urea], the IC50 at PI3Kα was > 100 µM; in experiment [1], > 100 µM; on PI3Kβ it was 10 to 100 µM; at PI3Kγ, > 100 µM; at PI3Kδ, 10 to 100 µM; at mTOR, 1 to 10 µM.

Regarding `C[C@H]1COCCN1c1nc2c(c(-c3ccc(NC(=O)NC4CC4)cc3)n1)CN(C(=O)CO)C2` [Example 22, (S)-1-cyclopropyl-3-(4-(6-(2-hydroxyacetyl)-2-(3-methylmorpholino)-6,7-dihydro-5H-pyrrolo[3,4-d]pyrimidin-4-yl)phenyl)urea], the IC50 is 10 to 100 µM at PI3Kα; > 100 µM in experiment [1]; 10 to 100 µM on PI3Kβ; 10 to 100 µM on PI3Kγ; 1 to 10 µM at PI3Kδ; 0.1 to 1 µM at mTOR.

Turning to `C[C@H]1COCCN1c1nc2c(c(-c3ccc(NC(=O)NC4CC4)cc3)n1)CN(C(=O)CC#N)C2` [Example 23, (S)-1-(4-(6-(2-cyanoacetyl)-2-(3-methylmorpholino)-6,7-dihydro-5H-pyrrolo[3,4-d]pyrimidin-4-yl)phenyl)-3-cyclopropylurea], the IC50 at PI3Kα was 10 to 100 µM; in experiment [1], > 100 µM; at PI3Kβ it was 10 to 100 µM; on PI3Kγ, > 100 µM; at PI3Kδ, 10 to 100 µM; at mTOR, 0.1 to 1 µM.

By IC50 is commonly meant the concentration at which inhibition is half-maximal.
